Consider 16 compounds from PubChem BioAssay (NCI).

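Growth conditions: 96-well plates. Treatment: test compound, 48 hours, 5 concentrations. Analysis: linear interpolation between bracketing concentrations; unreached endpoints set to highest concentration. The concentration for 50% growth inhibition is given as GI50. At the TGI there is no net growth.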

Test systems include CAKI-1 renal; OVCAR-3 ovarian; SK-MEL-28 melanoma; UACC-62 melanoma; HL-60(TB) leukemia; COLO 205 colon; UO-31 renal; MDA-MB-435; MDA-MB-231 breast; NCI/ADR-RES ovarian.
Assay in all cases: growth of human tumour cells (NCI), 48 h

As to `CCN(CC)CCC(=O)/C=C/c1ccc(C)cc1`, the TGI in the assay with CAKI-1 renal stood at 3.28 µM; in the assay with OVCAR-3 ovarian, 31.1 µM; in the assay on SK-MEL-28 melanoma, 28.1 µM; in the assay with UACC-62 melanoma it was 30.9 µM; in the assay with HL-60(TB) leukemia, 33.6 µM; in the assay on COLO 205 colon, 16.8 µM. Further, the TGI in the assay with UO-31 renal came out at 29.8 µM.

Turning to `Cc1ccc(C)c2c(N=Nc3ccccc3[N+](=O)[O-])c(O)[nH]c12`, the TGI in the assay on CAKI-1 renal, with MDA-MB-435, with OVCAR-3 ovarian, in the assay on SK-MEL-28 melanoma, in the assay with UACC-62 melanoma and in the assay on HL-60(TB) leukemia was over 100 µM throughout. Also, the TGI with COLO 205 colon, with UO-31 renal and in the assay with MDA-MB-231 breast was over 100 µM throughout.

As for `O=C(NC(=O)c1cc2cc(Br)cc(Br)c2oc1=O)Oc1ccccc1`, the TGI in the assay on CAKI-1 renal, with OVCAR-3 ovarian, in the assay with SK-MEL-28 melanoma, with UACC-62 melanoma, in the assay with COLO 205 colon and in the assay on UO-31 renal was over 100 µM in each case.

On to `CC(C)(C)N=CN(C=C(c1ccccc1)c1ccccc1)C1CCCCC1`, for which the TGI with CAKI-1 renal, in the assay with OVCAR-3 ovarian, in the assay with SK-MEL-28 melanoma, in the assay on UACC-62 melanoma and in the assay with COLO 205 colon was over 100 µM throughout.

As for `COc1cc2ccc(CC(N)=O)cc2cc1OC`, the TGI with OVCAR-3 ovarian, in the assay on SK-MEL-28 melanoma, with UACC-62 melanoma, with COLO 205 colon and in the assay with UO-31 renal was over 100 µM in each case.

With `C/C=C1\CCC2c3[nH]c4ccccc4c3CCN2C1` (stereo unspecified), the TGI in the assay on CAKI-1 renal, in the assay with OVCAR-3 ovarian, in the assay on SK-MEL-28 melanoma, in the assay on UACC-62 melanoma, in the assay with HL-60(TB) leukemia and in the assay on UO-31 renal was over 100 µM each time.

Take `Cc1cc2c(cc1C)[n+](Cc1ccc3ccccc3n1)cn2Cc1ccc2ccccc2n1`: the GI50 is 16.7 µM in the assay on NCI/ADR-RES ovarian; 0.571 µM with MDA-MB-435; 0.628 µM in the assay on OVCAR-3 ovarian; 0.992 µM in the assay with SK-MEL-28 melanoma; 0.612 µM with UACC-62 melanoma; 0.387 µM with COLO 205 colon. Besides, the GI50 with UO-31 renal is 1.33 µM; in the assay with MDA-MB-231 breast, 1.09 µM. The TGI with NCI/ADR-RES ovarian was found to be 50.9 µM; in the assay with MDA-MB-435 it was 2.05 µM; with OVCAR-3 ovarian, 2.12 µM; with SK-MEL-28 melanoma it was 2.47 µM; in the assay on UACC-62 melanoma it was 2.1 µM; with COLO 205 colon, 1.58 µM. Besides, the TGI with UO-31 renal was 2.84 µM; in the assay with MDA-MB-231 breast, 2.52 µM.

In the case of `O=C1c2c(c3c4ccccc4[nH]c3c3[nH]c4ccccc4c23)C(=O)N1Cc1ccccc1`, the TGI in the assay on CAKI-1 renal was 10.2 µM; in the assay on OVCAR-3 ovarian it was 8.16 µM; with SK-MEL-28 melanoma, 11.7 µM; with UACC-62 melanoma, 16.2 µM; with COLO 205 colon, 4.66 µM; in the assay on UO-31 renal, 6.69 µM.

As for `COc1cc2c(cc1OC)[C@@H]([C@H](O)c1ccccc1)NCC2`, the TGI in the assay with CAKI-1 renal, in the assay on OVCAR-3 ovarian, in the assay on SK-MEL-28 melanoma, in the assay on UACC-62 melanoma, in the assay with HL-60(TB) leukemia and with COLO 205 colon was over 100 µM in each case. The compound further came in with a TGI in the assay on UO-31 renal of over 100 µM.

For `Clc1ccc(C2=NOC3C4CCC(C4)C23)cc1` (stereo unspecified), the TGI in the assay with CAKI-1 renal, with OVCAR-3 ovarian, in the assay on SK-MEL-28 melanoma, in the assay with UACC-62 melanoma, in the assay on HL-60(TB) leukemia and in the assay with COLO 205 colon was over 100 µM each time. Besides, the TGI with UO-31 renal is over 100 µM.

Take `O=C1CCC2(c3ccccc3)Nc3ccc(Cl)cc3N12` (stereo unspecified): the TGI in the assay with CAKI-1 renal, in the assay on OVCAR-3 ovarian, in the assay with SK-MEL-28 melanoma, in the assay on UACC-62 melanoma, with HL-60(TB) leukemia and in the assay on COLO 205 colon was over 100 µM in each case. This compound also registered a TGI in the assay on UO-31 renal of over 100 µM.

In the case of `Cc1cn2c(/C=N/N=C(N)N)c(-c3ccsc3)nc2s1`, the GI50 in the assay with NCI/ADR-RES ovarian was 22.5 µM; in the assay on CAKI-1 renal, 17.4 µM; in the assay with MDA-MB-435, 11.1 µM; in the assay with OVCAR-3 ovarian it was 4.02 µM; in the assay on UACC-62 melanoma, 11.3 µM; with COLO 205 colon it was 3.18 µM. For the same compound, the values for the GI50 with UO-31 renal and in the assay on MDA-MB-231 breast were 25.2 µM and 3.94 µM, respectively. For the same compound, the TGI in the assay with NCI/ADR-RES ovarian came to 51.5 µM; in the assay with CAKI-1 renal, 32.7 µM; in the assay on MDA-MB-435, 24.6 µM; in the assay on OVCAR-3 ovarian, 13.4 µM; in the assay on UACC-62 melanoma, 23.4 µM; with COLO 205 colon, 15 µM. Also, the TGI in the assay on UO-31 renal is over 100 µM; in the assay with MDA-MB-231 breast, 17.1 µM.

Take `O=C(Sc1sc(=S)sc1SC(=O)c1ccccc1)c1ccccc1`: the TGI with CAKI-1 renal is over 100 µM; in the assay on OVCAR-3 ovarian, over 100 µM; in the assay with SK-MEL-28 melanoma, over 100 µM; in the assay with UACC-62 melanoma, 53 µM; in the assay with HL-60(TB) leukemia, over 100 µM; in the assay with COLO 205 colon, over 100 µM.

As to `O=C(COc1ccc(-c2nc3cc(Cl)c(Cl)cc3[nH]2)cc1)N=Nc1c(O)[nH]c2ccccc12`, the GI50 with NCI/ADR-RES ovarian was over 100 µM; with CAKI-1 renal, 6.91 µM; in the assay with OVCAR-3 ovarian, 2.7 µM; in the assay with UACC-62 melanoma, 2.83 µM; in the assay with HL-60(TB) leukemia, over 100 µM; in the assay with COLO 205 colon it was 2.29 µM. Also, the results for the GI50 in the assay with UO-31 renal and in the assay on MDA-MB-231 breast were over 100 µM and 1.09 µM, respectively. The TGI in the assay with NCI/ADR-RES ovarian, in the assay with CAKI-1 renal, in the assay on OVCAR-3 ovarian, in the assay with UACC-62 melanoma, in the assay with HL-60(TB) leukemia and in the assay on COLO 205 colon was over 100 µM throughout. For the same compound, the values for the TGI in the assay with UO-31 renal and with MDA-MB-231 breast were over 100 µM and 3.43 µM, respectively.

Consider `Cc1cc2c(=O)cc(-c3ccc(F)cc3)oc2c(C(=O)O)c1C`, for which the TGI with CAKI-1 renal, with OVCAR-3 ovarian, with SK-MEL-28 melanoma, in the assay with UACC-62 melanoma, in the assay with COLO 205 colon and with UO-31 renal was over 100 µM in each case.

With `Cc1ccc2c(CC(=O)O)cc(=O)oc2c1`, the TGI in the assay with CAKI-1 renal, with OVCAR-3 ovarian, with SK-MEL-28 melanoma, with UACC-62 melanoma, in the assay with HL-60(TB) leukemia and with COLO 205 colon was over 100 µM throughout.
